The values that follow come from US9790169B2, “IDO inhibitors” (BRISTOL-MYERS SQUIBB COMPANY, priority 2015, dated 2017).

This assay has as its target human IDO1 (Homo sapiens, UniProt P14902). As to the kind of experiment: Assessment of human IDO-1 inhibitory activity in HEK cells (human IDO1/HEK293 cells, kynurenine read-out with Ehrlich reagent, absorbance 490 nm). The class given is cell-based. On the set-up: expressed in transfected cells. The note with it: HEK Human IDO-1 cellular assay. As to the method:
Exemplary compounds were tested for inhibition of IDO activity.
Assessment of Human IDO-1 Inhibitory Activity in HEK Cells
HEK293 cells were transfected with a pCDNA-based mammalian expression vector harboring human IDO1 cDNA (NM 002164.2) by electroporation. They were cultured in medium (DMEM with 10% FBS) containing 1 mg/ml G418 for two weeks. Clones of HEK293 cells that stably expressed human IDO1 protein were selected and expanded for IDO inhibition assay.
The human IDO1/HEK293 cells were seeded at 10,000 cells per 50 μL per well with RPMI/phenol red free media contains 10% FBS in a 384-well black wall clear bottom tissue culture plate (Matrix Technologies LLC) 100 nL of certain concentration of compound was then added to each well using ECHO liquid handling systems. The cells were incubated for 20 hours in 37° C. incubator with 5% CO2.
The compound treatments were stopped by adding trichloroacetic acid (Sigma-Aldrich) to a final concentration at 0.2%. The cell plate was further incubated at 50° C. for 30 minute. The equal volume supernatant (20 μL) and 0.2% (w/v) Ehrlich reagent (4-dimethylaminobenzaldehyde, Sigma-Aldrich) in glacial acetic acid were mixed in a new clear bottom 384-well plate. This plate was then incubated at room temperature for 30 minute. The absorbance at 490 nm was measured on Envision plate reader.
Compound IC50 values were calculated using the counts of 500 nM of a reference standard treatment as one hundred percent inhibition, and counts of no compound but DMSO treatment as zero percent inhibition.

Where a name gives a salt, the structure may show the parent alone.

Chain of human IDO1 (P14902 whole entry): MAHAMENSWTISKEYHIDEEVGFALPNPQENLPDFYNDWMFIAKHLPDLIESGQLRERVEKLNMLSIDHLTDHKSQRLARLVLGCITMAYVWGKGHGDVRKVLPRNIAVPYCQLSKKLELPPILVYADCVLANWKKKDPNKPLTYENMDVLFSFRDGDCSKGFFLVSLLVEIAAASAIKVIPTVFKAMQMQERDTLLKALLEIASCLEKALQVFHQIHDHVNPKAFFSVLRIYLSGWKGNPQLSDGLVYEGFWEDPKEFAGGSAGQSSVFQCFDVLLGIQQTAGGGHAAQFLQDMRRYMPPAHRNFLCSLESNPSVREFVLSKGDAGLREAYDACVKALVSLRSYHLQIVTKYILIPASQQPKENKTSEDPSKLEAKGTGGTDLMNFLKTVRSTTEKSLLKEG

Turning to “3-(4-(isobutyl(tetrahydro-2H-pyran-4-yl)amino)-3-(3-(4-phenoxyphenyl)ureido)phenyl)butanoic acid [Example 959]”, the half-maximal inhibitory concentration (IC50) (as a rule, the concentration that inhibits the measured activity by half) was below 5 nM.

Turning to “3-(4-(isobutyl(tetrahydro-2H-pyran-4-yl)amino)-3-(3-(4-phenoxyphenyl)ureido)phenyl)butanoic acid [Example 962]”, the IC50 is above 50 nM.

`CCC(CC(=O)O)c1ccc(N(CC(C)C)CC(C)(C)O)c(Nc2ccc3nc(C)sc3c2)c1` (racemic) [Example 452, 3-(4-((2-Hydroxy-2-methylpropyl)(isobutyl)amino)-3-((2-methylbenzo[d]thiazol-6-yl)amino)phenyl)pentanoic acid]: the half-inhibitory concentration (IC50) was above 50 nM.

For the molecule `CCC(CC(=O)O)c1ccc(N(CC(C)C)CC(C)(C)O)c(Nc2ccc(Cl)cc2)c1` (racemic) [Example 453, 3-(3-((4-chlorophenyl)amino)-4-((2-hydroxy-2-methyl-propyl)(isobutyl)amino)phenyl) pentanoic acid], the concentration for half-maximal inhibition (IC50) is below 5 nM.

Regarding `CCC(CC(=O)O)c1ccc(N(CC)C2CCOCC2)c(NC(=O)Nc2ccc(OC)cc2F)c1` (racemic) [Example 608, 3-(4-(Ethyl(tetrahydro-2H-pyran-4-yl)amino)-3-(3-(2-fluoro-4-methoxyphenyl)ureido)phenyl)pentanoic acid], the IC50 was below 5 nM.

For `CCCN(c1ccc(C(CC)CC(=O)O)cc1NC(=O)Nc1ccc(OC)cc1F)C1CCOCC1` (racemic) [Example 609, 3-(3-(3-(2-Fluoro-4-methoxyphenyl)ureido)-4-(propyl(tetrahydro-2H-pyran-4-yl)amino)phenyl)pentanoic acid], the IC50 is below 5 nM.

Regarding `CCCN(c1ccc(C(CC)CC(=O)O)cc1NC(=O)Nc1cnc(C)nc1)C1CCOCC1` (racemic) [Example 610, 3-(3-(3-(2-methylpyrimidin-5-yl)ureido)-4-(propyl(tetrahydro-2H-pyran-4-yl)amino)phenyl)pentanoic acid], the IC50 is above 50 nM.

In the case of `CCCN(c1ccc(C(CC)CC(=O)O)cc1Nc1ncc(CC)cn1)C1CCOCC1` (racemic) [Example 611, 3-(3-((5-Ethylpyrimidin-2-yl)amino)-4-(propyl(tetrahydro-2H-pyran-4-yl)amino)phenyl)pentanoic acid], the IC50 is below 50 nM.

In the case of `CCC(CC(=O)O)c1ccc(N(CC(C)C)CC(C)C)c(NC(=O)Cc2ccc(C)cc2)c1` (racemic) [Example 949, (+/−)-3-(4-(Diisobutylamino)-3-(2-(p-tolyl)acetamido)phenyl)pentanoic acid], the IC50 was below 5 nM.

`CCC(CC(=O)O)c1ccc(N(CC(C)C)CC(C)C)c(NC(=O)Cc2ccc(C#N)cc2)c1` (racemic) [Example 950, (+/−)-3-(3-(2-(4-Cyanophenyl)acetamido)-4-(diisobutylamino)phenyl)pentanoic acid]: the IC50 was below 5 nM.

As to `CCC(CC(=O)O)c1cc(NC(=O)Nc2ccc(C)cc2)c(N(CC(C)C)C2CCCCC2)cc1F` (racemic) [Example 951, (+/−)-3-(4-(Cyclohexyl(isobutyl)amino)-2-fluoro-5-(3-(p-tolyl)ureido)phenyl)pentanoic acid], the half-maximal inhibitory concentration (IC50) was below 5 nM.

`CCOc1ccc(NC(=O)Nc2cc(C(CC)CC(=O)O)c(F)cc2N(CC(C)C)C2CCCCC2)cc1` (racemic) [Example 952, (+/−)-3-(4-(Cyclohexyl(isobutyl)amino)-5-(3-(4-ethoxyphenyl)ureido)-2-fluorophenyl)pentanoic acid]: the IC50 was below 5 nM.

Consider `Cc1ccc(NC(=O)Nc2cc(C(C)CC(=O)O)c(F)cc2N(CC(C)C)C2CCCCC2)cc1` (racemic) [Example 955, (+/−)-3-(4-(Cyclohexyl(isobutyl)amino)-2-fluoro-5-(3-(p-tolyl)ureido)phenyl)butanoic acid], for which the IC50 is below 5 nM.

On to `CCC(CC(=O)O)c1cc(F)c(N(CC(C)C)CC(C)C)c(NC(=O)Nc2cc(C(C)(C)C)on2)c1` (racemic) [Example 971, (+/−)-3-(3-(3-(5-(tert-Butyl)isoxazol-3-yl)ureido)-4-(diisobutylamino)-5-fluorophenyl)pentanoic acid, TFA], for which the IC50 was above 50 nM.

As for `CCCCc1ccc(NC(=O)Nc2cc(C(CC)CC(=O)O)cc(F)c2N(CC(C)C)CC(C)C)cc1` (racemic) [Example 973, (+/−)-3-(3-(3-(4-butylphenyl)ureido)-4-(diisobutylamino)-5-fluorophenyl)pentanoic acid], the IC50 was below 50 nM.

On to `CCC(CC(=O)O)c1cc(F)c(N(CC(C)C)CC(C)C)c(NC(=O)Nc2ccc(C)c(F)c2)c1` (racemic) [Example 974, (+/−)-3-(4-(diisobutylamino)-3-fluoro-5-(3-(3-fluoro-4-methylphenyl)ureido)phenyl)pentanoic acid], for which the IC50 was below 50 nM.

`CCC(CC(=O)O)c1cc(F)c(N(CC(C)C)CC(C)C)c(NC(=O)Nc2ccccc2Cl)c1` (racemic) [Example 975, (+/−)-3-(3-(3-(2-chlorophenyl)ureido)-4-(diisobutylamino)-5-fluorophenyl)pentanoic acid]: the IC50 is below 50 nM.

Take `CCC(CC(=O)O)c1cc(F)c(N(CC(C)C)CC(C)C)c(NC(=O)Nc2cc(C(F)(F)F)ccc2F)c1` (racemic) [Example 976, (+/−)-3-(4-(diisobutylamino)-3-fluoro-5-(3-(2-fluoro-5-(trifluoromethyl)phenyl)ureido)phenyl)pentanoic acid]: the IC50 is below 50 nM.

`CCC(CC(=O)O)c1cc(F)c(N(CC(C)C)CC(C)C)c(NC(=O)Nc2ccc(C#N)c(Cl)c2)c1` (racemic) [Example 978, (+/−)-3-(3-(3-(3-chloro-4-cyanophenyl)ureido)-4-(diisobutylamino)-5-fluorophenyl)pentanoic acid]: the 50% inhibitory concentration (IC50) is below 50 nM.

As to `COCC(CC(=O)O)c1ccc(N(CC(C)C)C2CCCCC2)c(NC(=O)Nc2ccccc2F)c1` (racemic) [Example 983, (+/−)-3-(4-(Cyclohexyl(isobutyl)amino)-3-(3-(2-fluorophenyl)ureido)phenyl)-4-methoxybutanoic acid], the IC50 was below 5 nM.

For the molecule `COCC(CC(=O)O)c1ccc(N(CC(C)C)C2CCCCC2)c(NC(=O)Nc2ccc(Cl)cc2F)c1` (racemic) [Example 984, (+/−)-3-(3-(3-(4-Chloro-2-fluorophenyl)ureido)-4-(cyclohexyl(isobutyl)amino)phenyl)-4-methoxybutanoic acid], the half-inhibitory concentration (IC50) was below 5 nM.

For `COCC(CC(=O)O)c1ccc(N(CC(C)C)C2CCCCC2)c(NC(=O)Nc2cc(C)on2)c1` (racemic) [Example 986, (+/−)-3-(4-(Cyclohexyl(isobutyl)amino)-3-(3-(5-methylisoxazol-3-yl)ureido)phenyl)-4-methoxybutanoic acid], the IC50 was below 50 nM.

As for `COCC(CC(=O)O)c1ccc(N(CC(C)C)C2CCCCC2)c(NC(=O)Nc2ccc(C)cc2)c1` (racemic) [Example 988, (+/−)-3-(4-(Cyclohexyl(isobutyl)amino)-3-(3-(p-tolyl)ureido)phenyl)-4-methoxybutanoic acid], the IC50 was below 5 nM.

Turning to `COCC(CC(=O)O)c1ccc(N(CC(C)C)C2CCCCC2)c(NC(=O)Nc2cncnc2)c1` (racemic) [Example 990, (+/−)-3-(4-(Cyclohexyl(isobutyl)amino)-3-(3-(pyrimidin-5-yl)ureido)phenyl)-4-methoxybutanoic acid], the 50% inhibitory concentration (IC50) was below 50 nM.

On to `COCC(CC(=O)O)c1ccc(N(CC(C)C)CC(C)C)c(NC(=O)Nc2ccc(C)cc2)c1` (racemic) [Example 992, (+/−)-3-(4-(Diisobutylamino)-3-(3-(p-tolyl)ureido)phenyl)-4-methoxybutanoic acid], for which the IC50 was below 50 nM.

As to `COCC(CC(=O)O)c1ccc(N(CC(C)C)CC(C)C)c(NC(=O)Nc2ccc(Cl)cc2F)c1` (racemic) [Example 994, (+/−)-3-(3-(3-(4-Chloro-2-fluorophenyl)ureido)-4-(diisobutylamino)phenyl)-4-methoxybutanoic acid], the 50% inhibitory concentration (IC50) was below 5 nM.

On to `COCC(CC(=O)O)c1ccc(N(CC(C)C)CC(C)C)c(NC(=O)Nc2cncnc2)c1` (racemic) [Example 996, (+/−)-3-(4-(Diisobutylamino)-3-(3-(pyrimidin-5-yl)ureido)phenyl)-4-methoxybutanoic acid], for which the IC50 was above 50 nM.

Consider `COCC(CC(=O)O)c1ccc(N(CC(C)C)CC(C)C)c(NC(=O)Nc2cc(C)on2)c1` (racemic) [Example 998, (+/−)-3-(4-(Diisobutylamino)-3-(3-(5-methylisoxazol-3-yl)ureido)phenyl)-4-methoxybutanoic acid], for which the half-maximal inhibitory concentration (IC50) was below 50 nM.

`CC(C)CN(CC(C)C)c1ccc(C(CC(=O)O)CN(C)C)cc1NC(=O)Nc1ccc(Cl)cc1F` (racemic) [Example 1000, (+/−)-3-(3-(3-(4-Chloro-2-fluorophenyl)ureido)-4-(diisobutylamino)phenyl)-4-(dimethylamino)butanoic acid]: the half-maximal inhibitory concentration (IC50) was above 50 nM.

Consider `CC(C)CN(CC(C)C)c1ccc(C(CC(=O)O)CN(C)C)cc1NC(=O)Nc1cncnc1` (racemic) [Example 1001, (+/−)-3-(4-(Disobutylamino)-3-(3-(pyrimidin-5-yl)ureido)phenyl)-4-(dimethylamino)butanoic acid], for which the half-maximal inhibitory concentration (IC50) is above 50 nM.
